The numbers were not newly measured in US6576633B1, “Stable liquid antimicrobial suspension compositions containing quarternaries prepared from hexamethylenetetramine and certain halohydrocarbons” (The Dow Chemical Company, priority 1996, dated 2003), which cites them from elsewhere.

The conditions of this data set: conventional 30 percent aqueous solution; within one month.

In the case of `ClC=CC[N+]12CN3CN(CN(C3)C1)C2.[Cl-]` (mixture of isomers) [cis/trans-compound, 1-(3-chloroallyl)-3,5,7-triaza-1-azoniaadamantane chloride], the chemical degradation is reported as ~30%.
As to `ClC=CC[N+]12CN3CN(CN(C3)C1)C2.[Cl-]` [cis-compound, 1-(3-chloroallyl)-3,5,7-triaza-1-azoniaadamantane chloride], the chemical degradation is recorded as ~30%.
